Assay results taken from ChEMBL document CHEMBL1201862, “PubChem BioAssay data set” (2004).
The source made the active and inactive calls.

Columns and labels:
[1] = molecular target: T1, Hepatocyte nuclear factor 4-alpha (Homo sapiens, UniProt P41235); format: functional, cell-based;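 also: biochemical luminescence-based dose-response counterscreen measuring inhibition of HNF4 dimerization, run alongside a screen for blockers of ABHD5–perilipin-5 interaction; split luciferase complementation of HNF4 fusion proteins in cell lysate measuring dimerization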
T1 sequence (P41235 whole entry): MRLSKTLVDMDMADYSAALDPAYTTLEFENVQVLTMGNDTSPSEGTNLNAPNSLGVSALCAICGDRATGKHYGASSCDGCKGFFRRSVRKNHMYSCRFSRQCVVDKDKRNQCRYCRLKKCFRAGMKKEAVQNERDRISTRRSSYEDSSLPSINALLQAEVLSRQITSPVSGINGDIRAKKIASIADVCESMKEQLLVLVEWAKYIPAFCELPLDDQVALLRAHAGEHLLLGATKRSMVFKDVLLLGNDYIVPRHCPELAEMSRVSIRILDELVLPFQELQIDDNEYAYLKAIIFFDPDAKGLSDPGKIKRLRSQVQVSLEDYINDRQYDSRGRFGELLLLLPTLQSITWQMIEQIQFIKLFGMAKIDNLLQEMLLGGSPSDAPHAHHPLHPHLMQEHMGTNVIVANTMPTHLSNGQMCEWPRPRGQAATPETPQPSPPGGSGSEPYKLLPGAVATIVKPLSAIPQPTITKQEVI

[2] = molecular target: T2, Short transient receptor potential channel 4 (Mus musculus, UniProt Q9QUQ5); assay: mouse TRPC4 channel activators, dose response, cell-based, HEK293 TRPC4/mu-opioid, Fluo-4 calcium (AID 434937); format: functional
T2 sequence (Q9QUQ5 whole entry): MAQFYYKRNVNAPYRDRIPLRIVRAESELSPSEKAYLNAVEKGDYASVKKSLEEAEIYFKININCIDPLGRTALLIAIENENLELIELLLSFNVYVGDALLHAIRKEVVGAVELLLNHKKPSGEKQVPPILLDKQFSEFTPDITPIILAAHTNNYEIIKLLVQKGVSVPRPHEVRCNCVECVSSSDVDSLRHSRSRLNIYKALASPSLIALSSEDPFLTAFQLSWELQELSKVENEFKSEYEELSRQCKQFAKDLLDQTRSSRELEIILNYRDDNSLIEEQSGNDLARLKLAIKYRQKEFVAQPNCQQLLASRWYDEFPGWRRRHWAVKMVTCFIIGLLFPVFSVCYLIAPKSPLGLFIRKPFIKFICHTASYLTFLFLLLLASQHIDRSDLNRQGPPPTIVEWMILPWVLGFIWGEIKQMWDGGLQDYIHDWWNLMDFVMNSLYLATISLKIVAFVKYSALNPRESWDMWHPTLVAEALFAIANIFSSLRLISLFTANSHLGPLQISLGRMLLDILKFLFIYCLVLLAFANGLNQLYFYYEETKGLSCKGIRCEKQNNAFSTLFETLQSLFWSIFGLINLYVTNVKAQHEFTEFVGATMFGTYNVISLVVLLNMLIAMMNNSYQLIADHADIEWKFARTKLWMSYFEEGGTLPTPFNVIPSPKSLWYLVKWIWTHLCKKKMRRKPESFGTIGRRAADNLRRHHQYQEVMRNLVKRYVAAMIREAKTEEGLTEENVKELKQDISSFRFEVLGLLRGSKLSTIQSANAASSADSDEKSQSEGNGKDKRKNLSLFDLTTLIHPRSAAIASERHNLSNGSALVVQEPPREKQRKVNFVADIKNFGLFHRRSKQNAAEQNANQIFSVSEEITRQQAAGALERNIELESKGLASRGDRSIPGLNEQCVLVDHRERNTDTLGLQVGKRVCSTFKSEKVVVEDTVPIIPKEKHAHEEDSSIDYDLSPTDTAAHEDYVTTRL

Melanocortin receptor 4 = Melanocortin receptor 4 (Homo sapiens, UniProt P32245); format: functional, cell-based;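 also: Cell-based assay with luminescence read-out, confirmatory dose-response testing for agonist activity of biased ligands at MC4R; human U2OS cells with tagged receptor and beta-arrestin; potency of agonists that increase receptor coupling to beta-arrestin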
Sequence of Melanocortin receptor 4 (P32245 whole entry): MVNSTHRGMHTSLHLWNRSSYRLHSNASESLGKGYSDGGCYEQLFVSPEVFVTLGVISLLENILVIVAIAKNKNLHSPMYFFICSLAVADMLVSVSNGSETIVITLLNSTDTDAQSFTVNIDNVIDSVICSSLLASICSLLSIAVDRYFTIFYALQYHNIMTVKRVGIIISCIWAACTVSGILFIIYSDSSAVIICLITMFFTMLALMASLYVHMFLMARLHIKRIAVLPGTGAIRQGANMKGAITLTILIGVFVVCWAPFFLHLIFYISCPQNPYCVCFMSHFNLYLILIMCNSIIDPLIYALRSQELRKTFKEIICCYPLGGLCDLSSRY

H9c2 = assay: cells; format: functional, cell-based; details: Rattus norvegicus, H9c2, Myocardium;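 also: confirmatory concentration-response retest of ultra-high-throughput screening hits for modulation of myocardial damage; cell death induced by hydrogen peroxide oxidative stress; compound pretreatment for 60 min then peroxide exposure for 2 h; potency is for protecting the cells against peroxide damage rather than for killing them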
[3] = molecular target: DNA dC->dU-editing enzyme APOBEC-3A (Homo sapiens, UniProt P31941); assay: Dose Response confirmation of small molecule APOBEC3A DNA Deaminase Inhibitors via a fluorescence-based single-stranded DNA deaminase assay. [Related pubchem assays (depositor defined):AID493011, AID493024]; format: functional
Sequence of DNA dC->dU-editing enzyme APOBEC-3A (P31941 whole entry): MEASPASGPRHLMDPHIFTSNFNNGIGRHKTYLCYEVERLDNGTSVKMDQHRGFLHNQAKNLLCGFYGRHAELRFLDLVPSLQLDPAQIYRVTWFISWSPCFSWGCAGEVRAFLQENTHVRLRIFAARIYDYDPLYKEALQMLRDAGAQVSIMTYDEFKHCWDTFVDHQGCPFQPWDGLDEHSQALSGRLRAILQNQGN

[4] = molecular target: DNA dC->dU-editing enzyme APOBEC-3G (Homo sapiens, UniProt Q9HC16); format: functional;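 also: Dose-response counterscreen measuring inhibition of APOBEC3G DNA deaminase activity, run while confirming APOBEC3A inhibitors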
Sequence of DNA dC->dU-editing enzyme APOBEC-3G (Q9HC16 whole entry): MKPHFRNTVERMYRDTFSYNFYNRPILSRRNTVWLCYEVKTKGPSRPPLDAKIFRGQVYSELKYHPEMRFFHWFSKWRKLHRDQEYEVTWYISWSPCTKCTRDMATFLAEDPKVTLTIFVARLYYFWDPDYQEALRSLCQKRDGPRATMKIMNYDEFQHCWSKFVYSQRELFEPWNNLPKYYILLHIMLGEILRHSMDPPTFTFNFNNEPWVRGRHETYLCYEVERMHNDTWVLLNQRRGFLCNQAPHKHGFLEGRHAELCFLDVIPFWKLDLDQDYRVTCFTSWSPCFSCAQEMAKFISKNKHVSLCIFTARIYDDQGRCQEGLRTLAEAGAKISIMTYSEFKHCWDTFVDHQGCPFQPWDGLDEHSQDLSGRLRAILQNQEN

Coagulation factor XII = molecular target: T3, Coagulation factor XII (Homo sapiens, UniProt P00748); format: functional;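 also: activated factor XIIa alpha cleaving a fluorogenic AMC peptide substrate; inhibitor potency from loss of enzyme activity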
T3 sequence (P00748 whole entry): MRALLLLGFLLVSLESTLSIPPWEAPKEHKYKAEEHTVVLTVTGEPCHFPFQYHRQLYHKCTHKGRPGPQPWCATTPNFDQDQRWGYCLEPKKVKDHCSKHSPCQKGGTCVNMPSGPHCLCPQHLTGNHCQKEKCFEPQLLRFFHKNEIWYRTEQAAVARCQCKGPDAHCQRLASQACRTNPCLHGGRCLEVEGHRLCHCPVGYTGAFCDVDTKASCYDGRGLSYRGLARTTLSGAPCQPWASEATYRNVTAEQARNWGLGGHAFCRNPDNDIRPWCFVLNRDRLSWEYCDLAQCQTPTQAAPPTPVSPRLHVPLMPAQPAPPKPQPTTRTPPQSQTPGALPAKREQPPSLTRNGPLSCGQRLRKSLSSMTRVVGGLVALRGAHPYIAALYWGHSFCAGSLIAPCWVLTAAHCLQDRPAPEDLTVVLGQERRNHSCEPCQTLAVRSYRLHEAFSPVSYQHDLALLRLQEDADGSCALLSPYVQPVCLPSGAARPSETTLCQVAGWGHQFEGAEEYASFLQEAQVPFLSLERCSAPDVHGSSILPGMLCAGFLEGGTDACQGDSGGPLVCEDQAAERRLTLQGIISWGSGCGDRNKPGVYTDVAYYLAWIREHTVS

[5] = molecular target: T4, Low molecular weight phosphotyrosine protein phosphatase (Homo sapiens, UniProt P24666); format: functional; details: read-out: IC50_Mean;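 also: Dose-response confirmation assay measuring inhibition of LMPTP enzyme activity by fluorescence intensity read-out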
T4 sequence (P24666 whole entry): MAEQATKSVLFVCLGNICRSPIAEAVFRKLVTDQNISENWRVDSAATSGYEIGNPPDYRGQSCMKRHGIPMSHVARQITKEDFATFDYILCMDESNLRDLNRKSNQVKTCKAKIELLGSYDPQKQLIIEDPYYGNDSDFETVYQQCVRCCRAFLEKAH

[6] = inhibitors of intracellular T. cruzi replication, confirmation, NIH3T3 host cells, beta-gal luminescence (AID 2044); format: functional, cell-based;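 also: intracellular parasites grown in NIH/3T3 mouse fibroblasts as host cells; luminescent beta-galactosidase reporter signal from transgenic T. cruzi replicating inside host cells; inhibitors lower the luminescence signal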
[7] = cytotoxicity toward NIH3T3 fibroblasts, dose response, counter-screen, cell-based, ATP luminescence, mouse fibroblasts (AID 2010); format: functional;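 also: cells exposed to compound for about 90 hours before reading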
[8] = cytotoxicity in HEK-293T cells, dose response, cytotoxicity control for TCR NF-kB inhibitor project, luminescence, T-cell screen hits (AID 489026); format: functional, cell-based;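 also: cells exposed to compound about 14 hours before the viability readout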
[9] = molecular target: Ras and Rab interactor 1/Tyrosine-protein kinase ABL1 (Homo sapiens, UniProt P00519+Q13671); format: functional;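 also: biochemical TR-FRET dose-response test measuring inhibition of binding between Rin1 and Abl proteins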
Sequence of Ras and Rab interactor 1/Tyrosine-protein kinase ABL1 (P00519 whole entry): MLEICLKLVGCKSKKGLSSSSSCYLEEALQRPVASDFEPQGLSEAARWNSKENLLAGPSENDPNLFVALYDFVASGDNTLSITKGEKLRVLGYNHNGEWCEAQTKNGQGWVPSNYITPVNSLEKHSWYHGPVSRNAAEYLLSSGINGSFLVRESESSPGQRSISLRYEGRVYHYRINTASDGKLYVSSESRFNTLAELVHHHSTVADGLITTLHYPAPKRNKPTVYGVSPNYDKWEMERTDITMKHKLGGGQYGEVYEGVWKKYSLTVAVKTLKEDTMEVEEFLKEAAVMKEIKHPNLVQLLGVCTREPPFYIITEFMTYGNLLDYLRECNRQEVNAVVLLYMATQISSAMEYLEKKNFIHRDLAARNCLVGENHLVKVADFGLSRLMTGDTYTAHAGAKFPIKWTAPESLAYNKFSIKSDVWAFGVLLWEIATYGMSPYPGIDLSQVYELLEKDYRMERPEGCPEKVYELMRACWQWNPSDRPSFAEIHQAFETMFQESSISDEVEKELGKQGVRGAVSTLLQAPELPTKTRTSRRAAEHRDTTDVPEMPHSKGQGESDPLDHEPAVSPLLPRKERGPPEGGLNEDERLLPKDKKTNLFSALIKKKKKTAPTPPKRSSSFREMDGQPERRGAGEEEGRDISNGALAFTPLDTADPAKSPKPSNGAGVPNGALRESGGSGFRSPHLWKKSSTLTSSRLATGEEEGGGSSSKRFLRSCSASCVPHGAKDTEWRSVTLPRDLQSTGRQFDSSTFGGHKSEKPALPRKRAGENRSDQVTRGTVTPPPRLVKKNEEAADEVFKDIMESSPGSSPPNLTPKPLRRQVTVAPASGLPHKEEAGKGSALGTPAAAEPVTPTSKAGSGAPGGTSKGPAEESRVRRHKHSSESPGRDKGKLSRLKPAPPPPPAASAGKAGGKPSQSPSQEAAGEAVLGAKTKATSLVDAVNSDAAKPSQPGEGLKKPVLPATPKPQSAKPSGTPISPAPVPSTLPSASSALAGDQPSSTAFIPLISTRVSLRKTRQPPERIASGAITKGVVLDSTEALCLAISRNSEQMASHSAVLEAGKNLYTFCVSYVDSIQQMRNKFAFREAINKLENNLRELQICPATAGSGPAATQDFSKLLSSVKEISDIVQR
Sequence of Ras and Rab interactor 1/Tyrosine-protein kinase ABL1 (Q13671 whole entry): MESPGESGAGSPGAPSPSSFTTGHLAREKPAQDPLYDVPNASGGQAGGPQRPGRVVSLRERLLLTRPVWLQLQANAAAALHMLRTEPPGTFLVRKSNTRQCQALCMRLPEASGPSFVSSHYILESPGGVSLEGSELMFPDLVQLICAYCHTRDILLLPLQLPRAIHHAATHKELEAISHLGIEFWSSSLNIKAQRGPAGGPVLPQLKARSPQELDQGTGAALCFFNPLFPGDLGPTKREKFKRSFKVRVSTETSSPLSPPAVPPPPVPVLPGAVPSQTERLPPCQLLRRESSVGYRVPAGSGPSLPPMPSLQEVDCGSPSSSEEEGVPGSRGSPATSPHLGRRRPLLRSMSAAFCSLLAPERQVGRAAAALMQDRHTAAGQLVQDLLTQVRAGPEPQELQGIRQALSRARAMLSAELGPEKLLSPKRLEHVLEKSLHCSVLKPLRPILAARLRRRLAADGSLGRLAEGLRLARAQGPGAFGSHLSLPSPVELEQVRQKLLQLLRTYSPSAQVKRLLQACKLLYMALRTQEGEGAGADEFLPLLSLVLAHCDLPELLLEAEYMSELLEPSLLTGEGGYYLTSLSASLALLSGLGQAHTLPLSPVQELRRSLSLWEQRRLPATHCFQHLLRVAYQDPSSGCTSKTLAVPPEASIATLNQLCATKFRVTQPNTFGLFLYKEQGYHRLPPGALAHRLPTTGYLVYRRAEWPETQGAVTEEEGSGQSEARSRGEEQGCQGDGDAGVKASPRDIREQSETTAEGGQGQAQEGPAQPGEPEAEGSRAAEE

[10] = HEp-2 cell cytotoxicity, dose response, cytotoxicity control for RSV inhibitor project, HTS (AID 2410); format: functional; details: human respiratory syncytial virus
Protein RecA = molecular target: T5, Protein RecA (Mycobacterium tuberculosis, UniProt P9WHJ3); assay: Fluorescence Cell-Free Homogeneous Dose Retest to Identify Inhibitors of RecA-Intein Splicing Activity. [Related pubchem assays (depositor defined):AID2097, AID2223, AID489010, AID492950]; format: functional
T5 sequence (P9WHJ3 whole entry): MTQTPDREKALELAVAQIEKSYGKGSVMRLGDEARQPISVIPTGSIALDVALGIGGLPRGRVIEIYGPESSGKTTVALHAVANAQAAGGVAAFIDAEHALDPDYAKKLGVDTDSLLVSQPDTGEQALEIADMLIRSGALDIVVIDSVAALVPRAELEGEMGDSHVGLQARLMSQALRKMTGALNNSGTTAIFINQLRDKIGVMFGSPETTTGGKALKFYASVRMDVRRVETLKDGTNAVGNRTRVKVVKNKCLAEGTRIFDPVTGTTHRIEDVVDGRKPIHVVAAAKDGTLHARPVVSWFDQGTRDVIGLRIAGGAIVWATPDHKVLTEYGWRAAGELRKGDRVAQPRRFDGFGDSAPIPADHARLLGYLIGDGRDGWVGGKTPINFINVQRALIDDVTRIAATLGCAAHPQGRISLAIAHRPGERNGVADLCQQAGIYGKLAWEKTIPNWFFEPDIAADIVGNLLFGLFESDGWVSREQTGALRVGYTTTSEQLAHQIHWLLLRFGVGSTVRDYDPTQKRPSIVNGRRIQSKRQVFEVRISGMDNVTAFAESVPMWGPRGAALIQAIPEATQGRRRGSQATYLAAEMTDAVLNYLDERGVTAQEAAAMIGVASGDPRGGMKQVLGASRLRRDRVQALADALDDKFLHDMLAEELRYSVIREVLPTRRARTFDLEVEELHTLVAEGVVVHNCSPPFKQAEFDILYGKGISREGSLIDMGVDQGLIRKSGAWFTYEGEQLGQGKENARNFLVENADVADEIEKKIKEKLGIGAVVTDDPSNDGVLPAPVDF

[11] = molecular target: T6, Replicative DNA helicase DnaB (Mycobacterium tuberculosis, UniProt P9WMR3); assay: DnaB intein splicing inhibitors, dose response, biochemical, cell-free fluorescence (AID 449749); format: functional
T6 sequence (P9WMR3 whole entry): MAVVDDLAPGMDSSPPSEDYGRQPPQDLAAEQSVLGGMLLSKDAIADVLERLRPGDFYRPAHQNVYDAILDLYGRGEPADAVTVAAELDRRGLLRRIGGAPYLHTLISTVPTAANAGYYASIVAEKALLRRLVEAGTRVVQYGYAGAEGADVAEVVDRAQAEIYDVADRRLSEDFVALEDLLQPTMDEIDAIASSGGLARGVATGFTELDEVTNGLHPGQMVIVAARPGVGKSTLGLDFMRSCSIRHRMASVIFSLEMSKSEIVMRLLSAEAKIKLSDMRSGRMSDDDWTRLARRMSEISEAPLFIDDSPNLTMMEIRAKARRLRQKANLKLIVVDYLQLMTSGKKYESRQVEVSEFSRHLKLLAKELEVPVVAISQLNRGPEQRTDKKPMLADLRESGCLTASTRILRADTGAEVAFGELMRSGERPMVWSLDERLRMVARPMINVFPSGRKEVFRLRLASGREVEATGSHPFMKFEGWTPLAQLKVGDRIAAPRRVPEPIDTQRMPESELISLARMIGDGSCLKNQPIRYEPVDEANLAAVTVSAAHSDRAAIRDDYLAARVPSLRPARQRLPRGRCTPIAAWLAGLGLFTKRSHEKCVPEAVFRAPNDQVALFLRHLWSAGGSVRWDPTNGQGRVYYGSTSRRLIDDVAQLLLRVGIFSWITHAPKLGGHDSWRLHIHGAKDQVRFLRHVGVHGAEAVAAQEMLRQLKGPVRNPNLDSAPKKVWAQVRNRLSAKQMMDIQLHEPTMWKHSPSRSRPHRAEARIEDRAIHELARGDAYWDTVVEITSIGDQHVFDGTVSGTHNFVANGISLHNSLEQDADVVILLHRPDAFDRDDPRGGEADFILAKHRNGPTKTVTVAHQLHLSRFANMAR

[12] = Luminescence Cell-Based Dose Retest to Confirm Inhibitors of Cancer Stem Cells. [Related pubchem assays (depositor defined):AID2717, AID2721]; format: functional; details: Homo sapiens
[13] = HepG2 cell cytotoxicity, dose response, cytotoxicity control for Shn3 inhibitor project, CellTiter-Glo, cherry-picked (AID 624134); format: functional, cell-based
[14] = Shn3 3'UTR reporter inhibitors, dose response, cell-based, Clone20 osteoblasts, firefly luciferase, cherry-picked (AID 624132); format: functional;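 also: firefly luciferase luminescence from reporter carrying the Shn3 3'UTR in osteoblasts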
[15] = control 3'UTR Renilla luciferase suppression, dose response, counter-screen for Shn3 inhibitor project, cell-based, Clone20-Shn3RL, cherry-picked (AID 624133); format: functional
cells = format: functional
[16] = Vero E6 cell cytotoxicity, dose response, cytotoxicity control for non-replicating M. tuberculosis project, secondary assay (AID 492998); format: functional, VeroE6; details: Vero C1008

CCCCCNC(=O)C(c1ccccc1F)n1c(=O)c(-c2ccco2)nc2ccccc21 (stereo unspecified)
IC50 [1]: 0.97 µM (active)

Cc1sc2ncnc(NCC(c3ccco3)N3CCCC3)c2c1C (stereo unspecified)
EC50 [2]: 0.0173 µM (active)

CC(=O)c1cccc(-c2cnc3c(NC=O)cc(-c4ccccc4F)cn23)c1
EC50 (Melanocortin receptor 4): > 89.2 µM (inactive)
IC50 (H9c2): > 79 µM (inactive)

COc1ccc(/C=N/NC(=O)C(C)Sc2ccccn2)cc1[N+](=O)[O-] (stereo unspecified)
IC50 [3]: 6.02 µM (active)
IC50 [4]: 7.71 µM (active)

CC(=O)Nc1ccc(NC(=O)CCn2c(=S)oc3ccccc32)cc1
IC50 (Coagulation factor XII): > 50 µM (inactive)

CCn1cc(C(=O)O)c(=O)c2cc(F)c(N3CCN(C(=S)NC(=O)c4ccccc4Br)CC3)cc21
IC50 [5]: 4.66 µM (active)

COc1ccc(CCNCc2ccc(SC)cc2)cc1
EC50 [6]: 0.225 µM (active)
EC50 [2]: 5.31 µM (active)
EC50 [7]: > 60 µM (not active)

CCOC(=O)c1[nH]c(C)c(C(=O)Nc2cc(Cl)ccc2C)c1C
IC50 [8]: > 80 µM (inactive)

COCCN(C(=O)COC(=O)CNC(=O)c1cccs1)c1c(N)n(Cc2ccccc2)c(=O)[nH]c1=O
IC50 [3]: 8.35 µM (active)
IC50 [4]: 10.8 µM (active)

Cc1cccc(N(Cc2ccccc2)C(=O)Cc2ccc(S(=O)(=O)N3CCOCC3)s2)c1
IC50 [9]: 18.6 µM (inactive)
CC50 [10]: 22 µM (active)

CCCCN(CC)CCNC(=O)Cn1cc2c(n1)-c1c(oc(C(=O)N3CCCC3)c1C)CC2
EC50 [2]: 0.267 µM (active)

Cc1cc(C)c(C(CC(=O)c2cccs2)C(C#N)C#N)c(C)c1 (stereo unspecified)
EC50 (Protein RecA): 2.31 µM (active)
AC50 [11]: 3.42 µM (active)
AC50 [12]: 5.08 µM (active)
IC50 [1]: 8.02 µM (active)

CCN1CCN(S(=O)(=O)c2ccc(Cl)c(C(=O)Nc3cc(Cl)ccc3N3CCOCC3)c2)CC1
IC50 [3]: 5.15 µM (active)
IC50 [4]: 5.78 µM (active)

Brc1cccc(/C=N/Nc2nn[nH]n2)c1
IC50 (Coagulation factor XII): > 50 µM (inactive)

Cc1ccc2nc(-c3cccc(SC4CCCCC4)c3)c(NCc3ccccc3)n2c1
AC50 [13]: > 70 µM (inactive)
AC50 [14]: 3.53 µM (active)
AC50 [15]: 5.3 µM (active)

O=C(NCc1ccccc1)C(c1ccc(C(F)(F)F)cc1)n1c(=O)c(-c2ccco2)nc2ccccc21 (stereo unspecified)
IC50 [1]: 2.02 µM (active)

C=CCn1c2ccccc2c2nnc(SCc3[nH]c(=O)[nH]c3C(=O)CCCCC(=O)OCC)nc21
IC50 [9]: 2.19 µM (active)

O=C(N/N=C/c1ccccn1)c1ccccc1
IC50 (cells): > 50 µM (active)
CC50 [16]: > 20 µM (active)
